Each molecule was assayed on HT-29 cells (assay: HT29 Cells 0FBS Assay In Vitro (TNF-α/SMAC mimetic/zVAD-FMK induced necroptosis, CellTiter-Glo cell viability)). Details: Homo sapiens; HT-29 cells, FBS free medium, TNF-α (10 ng/ml), SMAC mimetic (6 uM), zVAD-FMK (10 μM), 20 hours; geometric mean EC50; read-out: Cell activity (EC50) of Compounds 117-281.
Format: cell-based
In short: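 HT-29 cells (5,000/well, seeded overnight) in serum-free McCoy's 5A were stimulated with TNF-α 10 ng/ml, SMAC mimetic 6 μM and zVAD-FMK 10 μM to induce necroptosis. Compound added as 10-point 3-fold series for 20 h at 37° C. CellTiter-Glo luminescence gives viability; EC50 is geometric mean of duplicate dose-responses.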

`Cc1nn(-c2ncc(F)c(OC3CN(C(=O)N4N=CC[C@H]4c4cc(F)cc(F)c4)C3)n2)c(C)c1C(N)=O` [compound 276, (S)-1-(4-((1-(5-(3,5-difluorophenyl)-4,5-dihydro-1H-pyrazole-1-carbonyl)azetidin-3-yl)oxy)-5-fluoropyrimidin-2-yl)-3,5-dimethyl-1H-pyrazole-4-carboxamide] and `[2H]C1(c2cc(F)cc(F)c2)CC=NN1C(=O)N1CC(Oc2cc(-n3nc(C)c(C(N)=O)c3C)ncc2F)C1` (stereo not drawn) [compound 277, 1-(4-((1-(5-(3,5-difluorophenyl)-4,5-dihydro-1H-pyrazole-1-carbonyl-5-d)azetidin-3-yl)oxy)-5-fluoropyridin-2-yl)-3,5-dimethyl-1H-pyrazole-4-carboxamide] fall in the same range of EC50: 0.1 to 100 nM for the first, 0.1 to 100 nM for the second.

`Cc1nn(-c2cc(OC3CN(C(=O)N4N=CC[C@H]4c4cc(F)cc(F)c4)C3)c(F)cn2)c(C)c1CC(=O)O` [compound 278, (S)-2-(1-(4-((1-(5-(3,5-difluorophenyl)-4,5-dihydro-1H-pyrazole-1-carbonyl)azetidin-3-yl)oxy)-5-fluoropyridin-2-yl)-3,5-dimethyl-1H-pyrazol-4-yl)acetic acid] and `Cc1nn(-c2cc(OC3CN(C(=O)N4N=CC[C@H]4c4cc(F)cc(F)c4)C3)c(F)cn2)c(C)c1C(C)(C)C(=O)O` [compound 279, (S)-2-(1-(4-((1-(5-(3,5-difluorophenyl)-4,5-dihydro-1H-pyrazole-1-carbonyl)azetidin-3-yl)oxy)-5-fluoropyridin-2-yl)-3,5-dimethyl-1H-pyrazol-4-yl)-2-methylpropanoic acid] fall in the same range of EC50: 100 to 1000 nM for the first, 100 to 1000 nM for the second.

`Cc1nn(-c2cc(OC3CN(C(=O)N4N=CC[C@H]4c4cc(F)cc(F)c4)C3)c(F)cn2)c(C)c1C(C)(C)C(N)=O` [compound 280, (S)-2-(1-(4-((1-(5-(3,5-difluorophenyl)-4,5-dihydro-1H-pyrazole-1-carbonyl)azetidin-3-yl)oxy)-5-fluoropyridin-2-yl)-3,5-dimethyl-1H-pyrazol-4-yl)-2-methylpropanamide] and `CCc1nn(-c2cc(OC3CN(C(=O)N4N=CC[C@H]4c4cc(F)cc(F)c4)C3)c(F)cn2)c(C)c1C(N)=O` [compound 281, (S)-1-(4-((1-(5-(3,5-difluorophenyl)-4,5-dihydro-1H-pyrazole-1-carbonyl)azetidin-3-yl)oxy)-5-fluoropyridin-2-yl)-3-ethyl-5-methyl-1H-pyrazole-4-carboxamide] fall in the same range of EC50: 0.1 to 100 nM for the first, 0.1 to 100 nM for the second.
